Experimental findings from patent publication US10981932B2, “Macrocyclic indole derivatives” (Bayer Aktiengesellschaft, priority 2016, dated 2021) are described below.

The target in one assay is T1, BCL-2 (Homo sapiens, UniProt P10415).
T1 construct: BCL-2 (amino acids 1-211, C-terminal fused to a hexahistidine (6×His) tag); purchased BPS Bioscience (San Diego, Calif., USA); host or cells: E. coli
As to the kind of experiment: Protein-protein interaction assay BCL-2/Bad BH3 peptide (BCL-2 assay), TR-FRET. The format is binding. The note with it: His-BCL-2 / Bad BH3-derived peptide, median. The method, then:
Protein-Protein Interaction Assay: BCL-2/Bad BH3 Peptide (BCL-2 Assay)
The dose-dependent inhibition by the compounds described in this invention of the interaction between BCL-2 and the BH3 domain of Bad (both human) was determined using a steady state binding competition assay with time-resolved fluorescence energy transfer (TR-FRET) readout. For that purpose BCL-2 (amino acids 1-211, C-terminal fused to a hexahistidine (6×His) tag and a synthetic Bad BH3-derived peptide of sequence Biotin-PEG2-PEG2-NLWAAQRYGRELRR-Nle-SDEFVDSFKK-amide (SEQ ID NO: 2) served as protein receptor and tracer ligand respectively. The recombinant BCL-2 protein (expressed in E. coli) was purchased from BPS Bioscience (San Diego, Calif., USA). The Bad BH3-derived peptide can be obtained from e.g. Biosyntan (Berlin, Germany).
In the assay 11 different concentrations of each compound (0.1 nM, 0.33 nM, 1.1 nM, 3.8 nM. 13 nM, 44 nM, 0.15 μM, 0.51 μM, 1.7 μM, 5.9 μM and 20 μM) were typically measured as duplicates in the same microtiter plate. For that, 100-fold concentrated DMSO solutions were prepared by serial dilutions (1:3.4) of a 2 mM stock solution in a clear, 384-well microtiter plate (Greiner Bio-One, Frickenhausen, Germany). From there, 50 nl were transferred in a dark test plate (Greiner Bio-One. Frickenhausen, Germany). The assay was initiated by addition of 2 μl of a 2,5-fold concentrated His-BCL-2 solution (usually for a 1 nM end concentration in 5 μl reaction volume) in aqueous assay buffer [50 mM Tris/HCl pH 7, 100 mM sodium chloride (NaCl), 50 mM potassium fluoride (KF), 0.005% Tween-20, 2 mM DTT, 0.1% bovine gamma globulin (BGG)] to the compounds in the assay plate. This was followed by a 10-minute incubation step at 22° C. for pre-equilibration of the putative complex between His-BCL-2 and the compounds.
The mixture was incubated in the dark for one hour at 22° C. and then overnight at 4° C. The formation of BCL-2/Bad complexes was determined by measuring the resonance energy transfer of the anti-His-Eu-cryptate antibody to the streptavidin-XL665 present in the reaction. For that purpose, the fluorescence emission at 620 nm and 665 nm after excitation at 330-350 nm was measured in a TR-FRET measuring instrument, for instance a Rubystar or a Pherastar (both from BMG Lab Technologies. Offenburg, Germany) or a Viewlux (Perkin-Elmer). The ratio of the emission at 665 nm and at 622 nm was used as indicator of the amount of BCL-2/Bad complexes present.
The resulting data (ratio) were normalized, taking 0% inhibition as the mean value of control measurements (usually 32 data points) where all reagents were included. In this case 50 nl DMSO were used instead of compounds. A 100% inhibition corresponded to the mean value of control measurements (usually 32 data points) where all reagents except BCL-2 were included. IC50 values were determined by regression analysis based on a 4 parameter equation (minimum, maximum, IC50, Hill; Y=Max+(Min−Max)/(1+(X/IC50)^Hill) using the Screener Software (Genedata).
For orientation: In TR-FRET formats the signal depends on donor and acceptor labels being close together.

For the next assay, the system named is SUDHL10. As to the kind of experiment: Anti-proliferative effect (CellTiter-Glo, 72 h), SUDHL10. The format is cell-based. The note with it: SUDHL10 cells, antiproliferation, 72 h incubation, median, read-out: Antiproli SUDHL10 [M] (median). Summed up:
(§1)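 Luminescence from CellTiter-Glo, read 10 min after reagent addition, reports viable cell content after 72 h of compound treatment at 37 °C. A reference plate read at day 0 gives the starting baseline.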
For orientation: In ATP-based viability assays light output follows the ATP content of the culture.

For another assay, the system named is OPM2. As to the kind of experiment: Anti-proliferative effect (CellTiter-Glo, 72 h), OPM2. Format: cell-based. The note with it: OPM2 cells, median, read-out: IC50 antiproliferation assay OPM2 [M] (median). Put shortly:
as §1

Where a name gives a salt, the structure may show the parent alone. Read-outs that look alike come from different tables or passages of the source.

T1 sequence (P10415 1-211): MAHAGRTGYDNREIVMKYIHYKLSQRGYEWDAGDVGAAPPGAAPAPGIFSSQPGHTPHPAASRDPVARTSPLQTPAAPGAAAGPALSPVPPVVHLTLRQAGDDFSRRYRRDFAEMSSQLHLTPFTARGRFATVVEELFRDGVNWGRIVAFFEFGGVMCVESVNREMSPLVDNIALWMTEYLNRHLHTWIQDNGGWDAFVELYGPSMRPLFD

On to `Cc1c2c(nn1C)COCCCCn1c(C(=O)O)c(CCCOc3cccc4ccccc34)c3cccc-2c31` (racemic) [Example 1-36, (rac)-2,3-dimethyl-7-[3-(naphthalen-1-yloxy)propyl]-2,10,11,12,13,15-hexahydropyrazolo[4′,3′:9,10][1,6]oxazacycloundecino[8,7,6-hi]indole-8-carboxylic Acid], for which the IC50 against BCL-2 was > 20 µM; with SUDHL10 (Homo sapiens, SU-DHL10, 72 h) it was 6.09e-06 M; in the assay on OPM2 (Homo sapiens, OPM-2, 72 h), 1.01e-05 M.

In the case of `Cc1nn(C)c2c1-c1cccc3c(CCCOc4cccc5ccccc45)c(C(=O)O)n(c13)CCCCOCC2` (racemic) [Example 017, (rac)-1,3-dimethyl-7-[3-(1-naphthyloxy)propyl]-10,11,12,13,15,16-hexahydro-1H-pyrazolo[4′,3′:9,10][1,6]oxazacyclododecino[8,7,6-hi]indole-8-carboxylic Acid], the IC50 was > 20 µM at BCL-2; 2.17e-05 M in the assay with SUDHL10 (Homo sapiens, SU-DHL10, 72 h); 2.78e-05 M in the assay on OPM2 (Homo sapiens, OPM-2, 72 h); > 3.3e-05 M with OPM2.

Turning to `Cc1ccc2c(CCCOc3cccc4c3CCCC4)c(C(=O)O)n3c2c1-c1c(C)nn(C)c1COCCCC3` (racemic) [Example 039, (rac)-1,3,4-trimethyl-7-[3-(5,6,7,8-tetrahydronaphthalen-1-yloxy)propyl]-110,11,12,13,15-hexahydropyrazolo[4′3′:9,10][1,6]oxazacycloundecino[8,7,6-hi]indole-8-carboxylic Acid], the IC50 was > 20 µM at BCL-2 and 1.3e-05 M in the assay on SUDHL10 (Homo sapiens, SU-DHL10, 72 h).

For the compound `CC(C)c1c2c(nn1C)CN(C)CCCn1c(C(=O)O)c(CCCOc3cccc4ccccc34)c3cccc-2c31` (racemic) [Example 113, (rac)-7,10-dimethyl-1-[3-(naphthalen-1-yloxy)propyl]-11-(propan-2-yl)-4,5,6,7,8,10-hexahydropyrazolo[3′,4′:7,8][1,5]diazecino[9,10,1-hi]indole-2-carboxylic Acid], the IC50 at BCL-2 is > 20 µM; in the assay with SUDHL10 (Homo sapiens, SU-DHL10, 72 h), 6.99e-06 M; in the assay with OPM2 (Homo sapiens, OPM-2, 72 h), 1.42e-05 M.

Turning to `CCc1c2c(nn1C)CN(C)CCCn1c(C(=O)O)c(CCCOc3cccc4ccccc34)c3cccc-2c31` (racemic) [Example 141, (rac)-11-ethyl-7,10-dimethyl-1-[3-(1-naphthyloxy)propyl]-4,5,6,7,8,10-hexahydropyrazolo[3′,4′:7,8][1,5]diazecino[9,10,1-hi]indole-2-carboxylic Acid], the IC50 against BCL-2 was > 20 µM; in the assay with SUDHL10 (Homo sapiens, SU-DHL10, 72 h) it was 1e-05 M; with OPM2 (Homo sapiens, OPM-2, 72 h), 9.12e-06 M.

For `CCc1c2c(nn1C)CN(C)CCCn1c(C(=O)O)c(CCCOc3cccc4ccccc34)c3ccc(C)c-2c31` (racemic) [Example 144, (rac)-11-ethyl-7,10,12-trimethyl-1-[3-(1-naphthyloxy)propyl]-4,5,6,7,8,10-hexahydropyrazolo[3′,4′:7,8][1,5]diazecino[9,10,1-hi]indole-2-carboxylic Acid], the IC50 at BCL-2 is > 20 µM; with SUDHL10 (Homo sapiens, SU-DHL10, 72 h), 5.89e-06 M; in the assay on OPM2 (Homo sapiens, OPM-2, 72 h), 5.52e-06 M.

Turning to `CCc1c2c(nn1C)COCCCCn1c(C(=O)O)c(CCCOc3cccc4ccccc34)c3ccc(C)c-2c31` (racemic) [Example 153, (rac)-3-Ethyl-2,4-dimethyl-7-[3-(1-naphthyloxy)propyl]-2,10,11,12,13,15-hexahydropyrazolo[4′,3′:9,10][1,6]oxazacycloundecino[8,7,6-hi]indole-8-carboxylic Acid], the IC50 on BCL-2 is > 20 µM; with SUDHL10 (Homo sapiens, SU-DHL10, 72 h), 4.09e-06 M; with OPM2 (Homo sapiens, OPM-2, 72 h) it was 8.4e-06 M.

Take `Cc1nn(C)c2c1-c1cccc3c(CCCOc4cccc5cc(F)ccc45)c(C(=O)O)n(c13)CCCCOC2` (single isomer, unassigned; enantiomer 1) [Example 019, 7-{3-[(6-fluoronaphthalen-1-yl)oxy]propyl}-1,3-dimethyl-1,10,11,12,13,15-hexahydropyrazolo[4′,3′:9,10][1,6]oxazacycloundecino[8,7,6-hi]indole-8-carboxylic Acid-N-ethylethanamine Salt (Enantiomer 1)]: the IC50 was > 20 µM against BCL-2 and 4.45e-06 M in the assay on SUDHL10 (Homo sapiens, SU-DHL10, 72 h).

Consider `Cc1nn(C)c2c1-c1cccc3c(CCCOc4cccc5cc(Cl)ccc45)c(C(=O)O)n(c13)CCCCOC2` (single isomer, unassigned; enantiomer 1) [Example 041, 7-{3-[(6-chloronaphthalen-1-yl)oxy]propyl}-1,3-dimethyl-1,10,11,12,13,15-hexahydropyrazolo[4′,3′:9,10][1,6]oxazacycloundecino[8,7,6-hi]indole-8-carboxylic acid-N-ethylethanamine Salt (Enantiomer 1)], for which the IC50 against BCL-2 is > 20 µM.

With `Cc1ccc2c(CCCOc3cccc4ccccc34)c(C(=O)O)n3c2c1-c1c(nn(C)c1C)CN(C)CCC3` (single isomer, unassigned; enantiomer 1) [Example 073, 7,10,11,12-tetramethyl-1-[3-(naphthalen-1-yloxy)propyl]-4,5,6,7,8,10-hexahydropyrazolo[3′,4′:7,8][1,5]diazecino[9,10,1-hi]indole-2-carboxylic Acid (Enantiomer 1)], the IC50 was > 20 µM against BCL-2 and 6.86e-06 M in the assay with SUDHL10 (Homo sapiens, SU-DHL10, 72 h).

On to `CCn1nc2c(c1C1CC1)-c1cccc3c(CCCOc4cccc5ccccc45)c(C(=O)O)n(c13)CCCCOC2` (single isomer, unassigned; enantiomer 1) [Example 082, 3-cyclopropyl-2-ethyl-7-[3-(naphthalen-1-yloxy)propyl]-2,10,11,12,13,15-hexahydropyrazolo[4′,3′:9,10][1,6]oxazacycloundecino[8,7,6-hi]indole-8-carboxylic acid-N-ethylethanamine Salt (Enantiomer 1)], for which the IC50 at BCL-2 is > 20 µM; in the assay on SUDHL10 (Homo sapiens, SU-DHL10, 72 h), 7.79e-06 M.

Take `COCCn1nc2c(c1C1CC1)-c1cccc3c(CCCOc4cccc5ccccc45)c(C(=O)O)n(c13)CCCCOC2` (single isomer, unassigned; enantiomer 1) [Example 085, 3-Cyclopropyl-2-(2-methoxyethyl)-7-[3-(naphthalen-1-yloxy)propyl]-2,10,11,12,13,15-hexahydropyrazolo[4′,3′:9,10][1,6]oxazacycloundecino[8,7,6-hi]indole-8-carboxylic acid-N-ethylethanamine Salt (Enantiomer 1)]: the IC50 is > 20 µM at BCL-2 and 3.08e-06 M in the assay on SUDHL10.

For `Cc1c2c(nn1C1CC1)COCCCCn1c(C(=O)O)c(CCCOc3cccc4ccccc34)c3cccc-2c31` (single isomer, unassigned; enantiomer 1) [Example 093, 2-cyclopropyl-3-methyl-7-[3-(naphthalen-1-yloxy)propyl]-2,10,11,12,13,15-hexahydropyrazolo[4′,3′:9,10][1,6]oxazacycloundecino[8,7,6-hi]indole-8-carboxylic acid-N-ethylethanamine Salt (Enantiomer 1)], the IC50 against BCL-2 was > 20 µM; in the assay on SUDHL10 (Homo sapiens, SU-DHL10, 72 h), 1.03e-05 M.

As for `COCCn1nc2c(c1C)-c1cccc3c(CCCOc4cccc5ccccc45)c(C(=O)O)n(c13)CCCCOC2` (single isomer, unassigned; enantiomer 1) [Example 107, 2-(2-methoxyethyl)-3-methyl-7-[3-(naphthalen-1-yloxy)propyl]-2,10,11,12,13,15-hexahydropyrazolo[4′,3′:9,10][1,6]oxazacycloundecino[8,7,6-hi]indole-8-carboxylic acid-N-ethylethanamine Salt (Enantiomer 1)], the IC50 was > 20 µM on BCL-2 and 5.32e-06 M with SUDHL10.
